According to the supplement of paper PMC13380429:

Assays:
Details in all cases: 72 h
Vero E6 [1] = experiment: relative viability EC50 (midpoint between 100% and the lowest measured viability); higher = less toxic
U2OS [2] = experiment: as above
Calu-3 [3] = experiment: cell viability relative to DMSO; higher = less toxic
Vero E6 [4] = experiment: as above
U2OS [5] = experiment: as above
HepG2 [6] = experiment: as above
Calu-3 [7] = experiment: drug sensitivity score (DSS) for viability; higher = more toxic; extreme values may be limits of the assay
Vero E6 [8] = experiment: as above
U2OS [9] = experiment: as above
HepG2 [10] = experiment: as above
Caco-2 [11] = experiment: relative viability EC50 (midpoint between 100% and the lowest measured viability); higher = less toxic
HepG2 [12] = experiment: as above
Caco-2 [13] = experiment: cell viability relative to DMSO; higher = less toxic
Caco-2 [14] = experiment: drug sensitivity score (DSS) for viability; higher = more toxic; extreme values may be limits of the assay

Compound	relative viability EC50 (Vero E6 [1])	relative viability EC50 (U2OS [2])	cell viability (Calu-3 [3]; 1 nM)	cell viability (Calu-3 [3]; 10 nM)	cell viability (Calu-3 [3]; 100 nM)	cell viability (Calu-3 [3]; 1000 nM)	cell viability (Calu-3 [3]; 10000 nM)	cell viability (Vero E6 [4]; 1 nM)	cell viability (Vero E6 [4]; 10 nM)	cell viability (Vero E6 [4]; 100 nM)	cell viability (Vero E6 [4]; 1000 nM)	cell viability (Vero E6 [4]; 10000 nM)	cell viability (U2OS [5]; 1 nM)	cell viability (U2OS [5]; 10 nM)	cell viability (U2OS [5]; 100 nM)	cell viability (U2OS [5]; 1000 nM)	cell viability (U2OS [5]; 10000 nM)	cell viability (HepG2 [6]; 1 nM)	cell viability (HepG2 [6]; 10 nM)	cell viability (HepG2 [6]; 100 nM)	cell viability (HepG2 [6]; 1000 nM)	cell viability (HepG2 [6]; 10000 nM)	drug sensitivity score (Calu-3 [7])	drug sensitivity score (Vero E6 [8])	drug sensitivity score (U2OS [9])	drug sensitivity score (HepG2 [10])	relative viability EC50 (Caco-2 [11])	relative viability EC50 (HepG2 [12])	cell viability (Caco-2 [13]; 1 nM)	cell viability (Caco-2 [13]; 10 nM)	cell viability (Caco-2 [13]; 100 nM)	cell viability (Caco-2 [13]; 1000 nM)	cell viability (Caco-2 [13]; 10000 nM)	drug sensitivity score (Caco-2 [14])
CC(C)[C@@H](C(=O)Nc1nccs1)c1ccc(Cl)cc1 [4-CMTB]	> 10 µM	> 10 µM	111%	107%	102%	97.8%	68.1%	107%	107%	98%	96.4%	92.9%	104%	108%	106%	102%	85.5%	95.7%	95.4%	94.1%	99.7%	63.3%	1.8	0	0.1	1.8								
CN[C@@H](C)[C@H](O)c1ccccc1 [ephedrine]																								0	0	0								
CCN(CC)CCOC(=O)C1(c2ccccc2)CCCC1 [caramiphen]																							0	0	0	0								
Cc1nc2sccn2c(=O)c1CCN1CCC(=C(c2ccccc2)c2ccc(F)cc2)CC1	> 10 µM	> 10 µM						102%	101%	107%	100%	94.5%	95.6%	97.6%	97.3%	98.7%	95%	104%	96.3%	100%	96.9%	95.8%		0	0	0	> 10 µM	> 10 µM	95.3%	86.7%	97%	98.4%	97.2%	0
CN(N=O)C(=O)N[C@@H](C=O)[C@@H](O)[C@H](O)[C@H](O)CO [streptozotocin]	> 10 µM	> 10 µM						98.5%	98.1%	98.4%	96.7%	92.6%	106%	97.5%	100%	102%	103%	98.3%	90.7%	104%	101%	101%		0	0	0	> 10 µM	> 10 µM	106%	82.3%	79.9%	85.2%	96.2%	1
CCc1cc(-c2[nH]nc(C)c2-c2ccc3c(c2)OCCO3)c(O)cc1O			93.2%	94.6%	101%	89.7%	58.8%	99.4%	104%	101%	95.9%	67.9%	99.2%	94.9%	98.3%	99.7%	65.6%	94.7%	91.1%	104%	81.1%	11.1%	3.7	2.1	1.6	8		1.68 µM	103%	92%	98%	89.7%	53%	4.1
CN(C)C(=O)Oc1cccc([N+](C)(C)C)c1 [neostigmine]	> 10 µM	> 10 µM						91.1%	93.1%	90.6%	94.8%	112%	97.8%	95.7%	102%	97.9%	100%							0	0		> 10 µM		97.2%	91.9%	100%	93.7%	99.2%	0
CCCc1cc(=O)[nH]c(=S)[nH]1 [propylthiouracil]																							0	0	0									
CC(COc1ccccc1)NC(C)C(O)c1ccc(O)cc1 (centres undefined) [isoxsuprine]																							0	0		0								
O=c1c(-c2ccc(O)cc2)coc2cc(O)ccc12 [daidzein]																							0	0	0	0								
COC(=O)[C@@H]1CC2=CC(=O)CC[C@]2(C)[C@@]23O[C@@H]2C[C@@]2(C)[C@@H](CC[C@@]24CCC(=O)O4)[C@H]13 [eplerenone]	> 10 µM							99.7%	100%	99.1%	101%	95%												0			> 10 µM		98.4%	101%	85.8%	92.8%	98.4%	0
COC[C@H]1OC(=O)c2coc3c2[C@@]1(C)C1=C(C3=O)[C@@H]2CCC(=O)[C@@]2(C)C[C@H]1OC(C)=O [wortmannin]	> 10 µM		93.8%	90.6%	82.7%	69.5%	51.4%	106%	103%	97.3%	88.9%	76.8%	95.1%	99.3%	94.1%	91.1%	65.1%	98.4%	97.4%	98.2%	98.2%	86.7%	7.9	1.7	2.8	0.3	0.409 µM	> 10 µM	102%	99.3%	88.2%	58.3%	40.8%	9.1
O=c1oc2ccccc2c(O)c1Cc1c(O)c2ccccc2oc1=O [dicoumarol]																							0	0	0									
COC(=O)N[C@@H](C)CNc1nccc(-c2cn(C(C)C)nc2-c2cc(Cl)cc(NS(C)(=O)=O)c2F)n1 [Encorafenib (LGX818)]		> 10 µM						106%	106%	109%	116%	71.6%	101%	104%	106%	94.2%	82%	96.2%	91.7%	79.7%	38.4%	11.1%		0.7	1.1	14.2		0.37 µM	103%	89.5%	97%	88.4%	69.5%	2.4
NP(N)(=O)NC(=O)c1ccc(F)cc1 [flurofamide]	> 10 µM	> 10 µM						103%	102%	103%	97.6%	102%	100%	102%	97.3%	99.4%	96%	101%	98.6%	90.1%	95%	103%		0	0	0	> 10 µM	> 10 µM	95.9%	96.4%	90.9%	94.7%	91%	0
O=[N+]([O-])O[C@@H]1CO[C@H]2[C@@H]1OC[C@@H]2O [isosorbide-mononitrate]	> 10 µM	> 10 µM						103%	103%	101%	104%	94.4%	96.5%	96.8%	93.5%	96.7%	97.2%	101%	108%	91.2%	98.7%	93.3%		0	0	0	> 10 µM	> 10 µM	100%	111%	94.4%	117%	114%	0
Cc1ccc(-c2nn(C(C)(C)CNC(=O)c3ncccc3C)c3ncnc(N)c23)cc1 [WEHI-345-analog]	2.62 µM	3.51 µM	99.6%	110%	86%	97.8%	52.2%	100%	97.7%	99.8%	95.7%	37.2%	98.3%	108%	94.3%	104%	38.4%	109%	97.5%	99.7%	94.6%	34.2%	2.8	4.1	3	4.5		2.49 µM	96.3%	100%	95.5%	101%	58.9%	2
C=C(C)[C@@H]1CC=C(CO)CC1 [perillyl-alcohol]	> 10 µM	> 10 µM						98%	102%	98%	95.5%	96%	105%	98.2%	98.8%	95.6%	98.5%	101%	93.2%	108%	94.5%	92.9%		0	0	0	> 10 µM	> 10 µM	99%	99.6%	102%	102%	98.6%	0
